Assay results published in patent publication US7912651B2, “Function homology screening” (BioSeek LLC, priority 2000, dated 2011).
“Also recorded” adds a separate entry of the source.

Legend:
[1] = test system: HUVEC cells; assay: Optimized inflammatory assay combination: HUVEC treated with IL-1+TNF-α+IFN-γ, readout parameters by cell-based ELISA; parameters: species or system human; conditions: for activity (altered biomap) in the optimized assay combination: HUVEC, TNF-α (5 ng/ml)+IFN-γ (100 ng/ml)+IL-1, 24 hours
Description: Primary human umbilical vein endothelial cells (HUVEC) are used. Other cells that may replace HUVEC in the screen include primary microvascular endothelial cells, aortic or arteriolar endothelial cells or endothelial cell lines such as EAhy926 or E6-E7 4-5-2G cells or human telomerase reverse transcriptase-expressing endothelial cells (Simmons, J. Immunol., 148:267, 1992; Rhim, Carcinogenesis 19:673, 1998; Yang, J. Biol. Chem. 274:26141, 1999). 2×10^4 cells/ml are cultured to confluence in EGM-2 (Clonetics). Other media that may replace EGM-2 include EGM (Clonetics) and Ham's F12K medium supplemented with 0.1 mg/ml heparin and 0.03-0.05 mg/ml endothelial cell growth supplement (ECGS) and 10% FBS, or medium M199 (Life Technologies, Inc.) containing 20% fetal bovine serum and 2 ng/ml basic fibroblast growth factor (Jaffe, J. Clin. Invest. 52:2745, 1973; Hoshi, PNAS 81:6413, 1984). The disease environment present in chronic inflammatory diseases, such as Crohn's disease, differs from the normal condition by increased presence of multiple biologically active agents including IL-1, TNF-α, and IFN-γ (Woywodt, 1994; Kakazu, 1999). Other biologically active agents that may be increased in chronic inflammatory disease environments include IL-4, IL-6, IL-8, IL-12, IL-13, IL-18, TGFbeta, and histamine, as well as activated leukocytes and their products (Daig, 1996, Gut 38:216; Woywodt, 1994, Eur. cytokine Netw. 5:387; Kakazu, 1999 Am J. Gastroenterol. 94:2149; Pizarro, 1999, J. Immunol. 162:6829; Monteleone, 1999, J. Immunol. 163:143; […] Enteral Nutr 23:S20; Beck, 1999, […]. Bowel Dis. 5:44). Optimized assay combinations will contain at least two, and preferably three, four or more of these biologically active agents. Concentrations of agents are standard according to the literature, typically at physiologic concentrations. Concentrations may also be determined experimentally as the amount required to saturate the relevant receptor. A useful feature of the present invention is that combinatorial effects of multiple factors are observed over wide ranges of factor concentrations. Based on the factors included in an assay combination, a set of parameters for including in a biomap are selected. The experiments provided in FIG. 1A-1C illustrate the usefulness of the present invention in compound screening applications. […] After 24 hours, cultures are washed and evaluated for the presence of the parameters ICAM-1 (1), VCAM-1 (2), E-selectin (3), IL-8 (4), CD31 (5), HLA-DR (6) and MIG (7) by cell-based ELISA as described (Melrose, J. Immunol. 161:2457, 1998). For this, plates are blocked with 1% Blotto for 1 hr, and treated with primary antibodies (obtained from Pharmingen and Becton Dickinson) at 1 ng/ml for 2 hr. After washing, secondary peroxidase-conjugated anti-mouse IgG antibody (Promega) at 1:2500 is applied for 45 min. After washing, TMB substrate (Kierkegaard & Perry) is added and color developed. Development is stopped by addition of H2SO4 and the absorbance at 450 nm (subtracting the background absorbance at 600 nm) is read with a Molecular Dynamics plate reader. The relative expression levels of each parameter are indicated by the OD at 450 nm shown along the y-axis. The mean+/-SD from triplicate samples is shown. The assay combinations shown in FIG. 1 are useful in screening compounds that modulate TNF-α, IL-1 and IFN-γ signaling pathways, however, compounds must be evaluated separately in all three assay combinations to identify compounds that selectively modulate one or more of these pathways. In addition, compounds that selectively modulate combinatorial effects of these pathways cannot be distinguished. […] Confluent cultures of HUVEC cells are treated with TNF-α (5 ng/ml)+IFN-γ (100 ng/ml)+IL-1 (1 ng/ml) in the presence or absence of neutralizing anti-TNF-α or control antibody (Goat anti-IgG). […] In FIG. 3A, the relative expression of each parameter is shown along the y-axis as average value of the OD measured at 450 nm of triplicate samples. […]

[2] = test system: HUVEC cells; assay: Lactate dehydrogenase (LDH) in HUVEC culture supernatants, CytoTox96 assay; assay type: cell-based, human; conditions: endothelial cell cultures
Description: Effect of over-expression of bcl-2 and bcl-xl proteins on a panel of assay combinations. HUVEC cells were transduced with either Bcl-2, Bcl-xL or control empty vector (control). Confluent cultures were treated with either ceramide (10 μm), TNF-α (5 ng/ml), ceramide (10 μm)+TNF-α (5 ng/ml), or media only. After 24 hours, cells were washed and evaluated for the surface expression of ICAM-1 (1), VCAM-1 (2), and MIG (3) by cell-based ELISA performed as described in FIG. 1. Cell supernatants were collected and analyzed for the presence of lactate dehydrogenase LDH (4) by CytoTox96 assay (Promega).
A panel of assay combinations that reproduces aspects of the response of the endothelial cells to inflammatory processes and stimuli enhancing apoptosis is used. […] Endothelial cells cultured under basal conditions display a low level of cell damage as measured by release of cytoplasmic lactate dehydrogenase from cells into the supernatant.

[3] = test system: TNF-R1 (p55); assay: TNF-R1 (p55) morpholino antisense in HUVEC, flow cytometry; assay type: cell-based, human; conditions: 4 hours
Excerpt: Morpholino phosphorodiamidate (MF) antisense oligonucleotides are used. Other chemical classes of antisense oligonucleotides that can be substituted for morpholinos include but are not limited to phosphorotioate oligonucleotides, N3′-P5′ phosphoramidate oligonucleotides (NP), locked nucleic acid (LNA), 2′-O-methoxyethyl nucleic acid (MOE), 2′-fluoro-arabinonucleic acid (FANA), peptide nucleic acids (PNA) (reviewed in Toulme, Nature Biotech. 19:17, 2001). In the example in FIG. 18, antisense oligonucleotides for TNF-R1 (p55) (5′-[…]-3′)(SEQ ID NO:1), and the beta-globin control oligo (5′-[…]-3′)(SEQ ID NO:2) (Gene Tools Inc.) are used. The transfection mixture is prepared by mixing […] of stock morpholino (0.5 mM), […], and 4 ml of 200 mM EPEI (Ethoxylated PolyEthylenimine), vortexed, incubated at room temperature for 20 minutes, and then mixed with 3.5 ml of serum-free media to give a final 0.6 μM morpholino concentration. HUVEC cells are plated the day before in 24-well plates at 4-6×10e4 cells/well. Cells are washed once with serum-free media and incubated with 0.4 ml of the morpholino transfection mixture at 37° C. for 3 hours. Morpholino is removed, regular media (Epithelial Growth Media with 2% fetal calf serum, Clonetics) is added and cells allowed to recover overnight. The efficiency of loading of cells with morphino is monitored in cells incubated with a fluorescent morpholino, and is typically essentially 100 percent. HUVEC cells are then treated with either TNF-α (0.5 ng/ml), or IL-1 (1 ng/ml), or media only. After 4 hours, cells are harvested and evaluated for the cell surface expression of ICAM-1 (1), VCAM-1 (2), E-selectin (3), and CD31 (4) by flow cytometry. […] The TNF-R1 antisense specifically blocks induction of ICAM-1 and VCAM-1 by TNF-α, while it has no effect on induction of the same markers by the independent cell surface receptor for IL-1.

[4] = test system: HUVEC cells; assay: HUVEC assay combinations with single pathway activators (TNF-α, IL-1, IFN-γ or activating antibody to p55), biomaps by cell-based ELISA; parameters: species or system human
Description: Confluent cultures of HUVEC cells are treated with TNF-α (5 ng/ml), IFN-γ (100 ng/ml), IL-1 (20 ng/ml), the combination of TNF-α+IFN-γ+IL-1, or media in the presence or absence of Act-anti-p55. After 24 hours, cultures are washed and evaluated for the cell surface expression of ICAM-1 (1), VCAM-1 (2), E-selectin (3), IL-8 (4), and MIG (5) by cell-based ELISA performed as described in FIG. 1. A color-coded representation of the resulting biomaps prepared from the data is shown in FIG. 8, coded as described in FIG. 2B. […]

[5] = test system: HUVEC cells; assay: HUVEC in basal medium cultured with factor or agent for 24 hours, cell-based ELISA; parameters: species or system human; conditions: HUVEC cultured with the factor/agent for 24 hours, vs basal medium
Description: After 24 hours, cultures are washed and evaluated for the presence of the parameters ICAM-1 (1), VCAM-1 (2), E-selectin (3), IL-8 (4), CD31 (5), HLA-DR (6) and MIG (7) by cell-based ELISA as described (Melrose, J. Immunol. 161:2457, 1998). For this, plates are blocked with 1% Blotto for 1 hr, and treated with primary antibodies (obtained from Pharmingen and Becton Dickinson) at 1 ng/ml for 2 hr. After washing, secondary peroxidase-conjugated anti-mouse IgG antibody (Promega) at 1:2500 is applied for 45 min. After washing, TMB substrate (Kierkegaard & Perry) is added and color developed. Development is stopped by addition of H2SO4 and the absorbance at 450 nm (subtracting the background absorbance at 600 nm) is read with a Molecular Dynamics plate reader. The relative expression levels of each parameter are indicated by the OD at 450 nm shown along the y-axis. The mean+/−SD from triplicate samples is shown.
After 24 hours, cultures are washed and evaluated for the presence of the parameters ICAM-1 (1), VCAM-1 (2), E-selectin (3), IL-8 (4), CD31 (5), HLA-DR (6) and MIG (7) by cell-based ELISA performed as described in FIG. 1 and are reported as the OD at 450 nm in FIG. 2. The mean+/−SD from triplicate samples are shown. * indicates p<0.05 comparing results obtained with the two separate conditions.
After 24 hours, cultures are washed and evaluated for the presence of the parameters ICAM-1 (1), VCAM-1 (2), E-selectin (3), IL-8 (4), CD31 (5), HLA-DR (6) and MIG (7) by cell-based ELISA performed as described in FIG. 1 and are reported as the OD at 450 nm. The mean+/−SD from triplicate samples are shown. * indicates p<0.05 comparing results obtained with the two separate conditions.

In the case of `N#CC(C#N)=Cc1ccc([N+](=O)[O-])c(O)c1` [AG126], the “activity (altered biomap) in the optimized assay combination” value (from here on “activity (altered biomap)”) [1] is reported as “active compounds”.

For `CC(Cc1ccc(O)c(O)c1)C(C)Cc1ccc(O)c(O)c1` (stereo not shown) [NHGA, nordihydroguaiaretic acid], the “activity (altered biomap)” value [1] was “altered biomaps”.

`COc1cccc(-c2cc(=O)c3ccccc3o2)c1N` [PD098059] was tested, and the “activity (altered biomap)” value [1] was “altered biomaps”.

For `O=C(NC1=CC(=O)c2ccccc2C1=O)c1ccccc1` [PPM-18], the “cellular toxicity at higher concentrations (2-fold) when tested alone” value ([1]; 2-fold above PPM-18 2 μM / AG126 25 μM) was “cellular toxicity” and the “activity (altered biomap)” value [1] was “active compounds”.

For `S=C(S)N1CCCC1` [PDTC, pyrrolidine dithiocarbamate], the “activity (altered biomap)” value [1] was “altered biomaps”.

With ceramide the “release of cytoplasmic lactate dehydrogenase into the supernatant (cell damage) vs basal conditions” value [2] was “enhanced”.

With “5′-AGGTCAGGCACGGTGGAGAGGC-3′ (all phosphorodiamidate morpholino (PMO)) [TNF-R1 antisense]” the “biomap versus control oligo upon treatment with TNF-α” value ([3]; 0.6 μM morpholino, TNF-α (0.5 ng/ml)) was “altered biomap”, the “induction of ICAM-1 by IL-1” value ([3]; IL-1 (1 ng/ml)) was “no effect” and the “induction of VCAM-1 by IL-1” value ([3]; IL-1 (1 ng/ml)) was “no effect”. For the same molecule, the “induction of ICAM-1 by TNF-α” value ([3]; TNF-α (0.5 ng/ml)) was “blocks” and the “induction of VCAM-1 by TNF-α” value ([3]; TNF-α (0.5 ng/ml)) was “blocks”.

B1: p55-Fc: recombinant fusion protein containing the extracellular domains of the p55 TNF-α-receptor fused to immunoglobulin Fc domain (protein)
chain: LVPHLGDREKRDSVCPQGKYIHPQNNSICCTKCHKGTYLYNDCPGPGQDTDCRECESGSFTASENHLRHCLSCSKCRKEMGQVEISSCTVDRDTVCGCRKNQYRHYWSENLFQCFNCSLCLNGTVHLSCQEKQNTVCTCHAGFFLRENECVSCSNCKKSLECTKLCLPQIENVKGTEDSGTT
modifications: left off: a dimerising Fc or GST
notes: recombinant fusion protein containing the extracellular domains of the p55 TNF-α-receptor fused to immunoglobulin Fc domain
B1 was tested, and the “activity (altered biomap)” value [1] was “active compound”, the “biomap of cultures containing activating antibody to TNF-α-receptor p55: sensitivity to the agent” value ([4]; Act-anti-p55, 24 hours) was “is sensitive; also recorded: alters” and the “biomap of the assay combination containing IL-1 alone: sensitivity to the agent” value ([4]; IL-1, 24 hours) was “not sensitive”. The “biomap of the assay combination containing TNF-α alone: sensitivity to the agent” value ([4]; TNF-α (5 ng/ml), 24 hours) was “altered; also recorded: is sensitive”.

B2: IFN-γ: cytokine used as factor (protein)
chain: QDPYVKEAENLKKYFNAGHSDVADNGTLFLGILKNWKEESDRKIMQSQIVSFYFKLFKNFKDDQSIQKSVETIKEDMNVKFFNSNKKKRDDFEKLTNYSVTDLNVQRKAIHELIQVMAELSPAAKTGKRKRSQMLFRGRRASQ
B2 was tested, and the “level of HLA-DR” value [5] was “increased”, the “level of ICAM-1” value [5] was “increased” and the “level of MIG” value [5] was “increased”.
